The values below come from patent publication US6660251B1, “Galenic formulation containing biotin” (Merck Patent GmbH, priority 1999, dated 2003).

Data set [1] concerns native human keratinocytes. The experiment in a line: Investigations on the lipid (fatty acid) content of native human keratinocytes under biotin. Type of data set: cell-based. The conditions noted are these: under the action of biotin. The protocol: HaCaT cells (human adult low-calcium high-temperature keratinocytes) and native human keratinocytes are cultured in Gibco's keratinocyte serum-free medium (SFM) with addition of BPE (25 μg/ml bovine hypophysis extract) and rEGF (0.1-0.2 ng/ml, recombinant epidermal growth factor) in 5% strength CO2 atmosphere (pH 7.2-7.4) at 36.6° C. in the low-calcium status (0.09 mM) in culture flasks (1 million cells/20 ml of SFM) and treated with the biotin solution (biotin dissolved in buffer according to McIloaine; medium concentration 10^−7-10^−3 mol/l and solvent control) on the 3rd day after sowing. On the 6th day, the confluent monolayer is harvested and the samples are prepared, individual pellets up to 3 million cells each being used for the lipid extraction and for the protein determination. […]
(§1) The lipid film is taken up in 4 ml of methanol (gradient grade for HPLC) and analyzed via GC-MS.
The extracted lipids of the keratinocytes are analyzed as methanolic solutions via GC-MS in order to quantify the fatty acids contained therein. […]
(§2) The protein content of the cells is determined according to the Lowry method using the protein assay kit. After preparation according to the procedure for the kit (P 5656), the measurement was carried out on an absorption reader at 690 nm.

For data set [2] the following is noted: cited from earlier work.
Another data set deals with HaCaT keratinocytes. In words: Investigations on the lipid (fatty acid) content of HaCaT keratinocytes under biotin. Type of data set: cell-based, human. On the procedure:
HaCaT cells (human adult low-calcium high-temperature keratinocytes) and native human keratinocytes are cultured in Gibco's keratinocyte serum-free medium (SFM) with addition of BPE (25 μg/ml bovine hypophysis extract) and rEGF (0.1-0.2 ng/ml, recombinant epidermal growth factor) in 5% strength CO2 atmosphere (pH 7.2-7.4) at 36.6° C. in the low-calcium status (0.09 mM) in culture flasks (1 million cells/20 ml of SFM) and treated with the biotin solution (biotin dissolved in buffer according to McIloaine; medium concentration 10^−7-10^−3 mol/l and solvent control) on the 3rd day after sowing. On the 6th day, the confluent monolayer is harvested and the samples are prepared, individual pellets up to 3 million cells each being used for the lipid extraction and for the protein determination.
The cells are extracted following the lipid extraction of Bligh and Dyer (B. E. Bligh et al. (1959) A rapid method of total lipid extraction and purification. Can. J. Biochem. Physiol. 37: 911-917). For this, the cell pellet is treated with 20 ml of a solvent mixture (chloroform: methanol=2:1), homogenized with stirring and extracted with shaking in the dark for 30 min. It is then filtered through a sterile filter and the extract is concentrated on a vacuum rotary evaporator.
as §1
The extracted lipids of the keratinocytes are analyzed as methanolic solutions via GC-MS in order to quantify the fatty acids contained therein. 100 μl of the solution are reacted with 1 μl each of 0.2 M trimethylsulfionium hydroxide to give methyl esters in order to improve the evaporability.
as §2
The results of the influence of biotin on the fatty acid content of HaCaT keratinocytes are shown in FIGS. 1 to 4 for various concentrations of biotin (dissolved in buffer according to McIloaine). As control, the fatty acid content of the HaCaT keratinocytes after corresponding action of the buffer without biotin is moreover shown in FIGS. 1 to 4. The contents of the fatty acids myristic acid (MA), palmitic acid (PA), stearic acid (SA), oleic acid (OS) and linoleic acid (LA) are shown based on the protein content of the cells.

In a further data set the test system is skin of old people. The note with it: cited from earlier work.
Data set [3] in a line: Penetration investigations on human skin ex vivo (FRANZ diffusion cell, 14C-biotin). The class given is in vitro ADME. The text has this:
To characterize the penetration behavior of biotin from different emulsions in excised human skin, FRANZ's diffusion cell is chosen as an in-vitro model. The selection of the model is based on the experience of the authors, who were able to detect correlating results between the in-vitro data of the model and the in-vivo results (R. J. Feldmann, et al. (1970): Absorption of some organic compounds through the skin in man. J. Invest. Dermatol. 54: 399-404: T. J. Franz (1975): Percutaneous absorption. On the relevance of in vitro data. J. Invest. Dermatol. 64: 190-195). The basic unit of the FRANZ diffusion cell consists of a double-walled, temperature-controllable glass section. The acceptor liquid which is continuously kept in the homogeneous state by stirring is situated therein. In direct contact with the acceptor is the sample material on a gauze, which is stabilized by a glass ring and a metal clamp. A glass cover functions as evaporation protection for the upkeep of largely constant hydration conditions during the investigation period. […] It is determined quantitatively in fractionation of the detachments in pairs (10×2). […] Following this, the samples are measured in the liquid scintillation counter with addition of two blank values. […]

Regarding `O=C(O)CCCCC1SCC2NC(=O)NC21` (stereo not drawn) [biotin, hexahydro-2-oxiothieno [3,4-d]imidazole-4-valeric acid], the “concentration of linoleic acid (LA)” value in data set [1] is on record as “absence of an increase”; with HaCaT keratinocytes (HaCaT keratinocytes, under the action of biotin) it was “absence of an increase”. For the same molecule, the “concentration of the fatty acids myristic acid (MA), palmitic acid (PA), stearic acid (SA) and oleic acid (OA)” value in data set [1] is listed as “Increases”; with HaCaT keratinocytes (culture of HaCaT keratinocytes, under the action of biotin), “Increases”. The “efficacy in soft, brittle and splitting nails, different forms of alopecia and atopic and seborrheic dermatitis” value in data set [2] (continuous biotin therapy) is “possible to show the efficacy”. The side effects entry in data set [2] (in vivo) was “no side effects at all”. The figures for the “lipid synthesis power of keratinocytes” value with HaCaT keratinocytes (biotin concentration in the medium 10^−5 to 10^−3 mol/l) and with HaCaT keratinocytes (biotin concentration in the medium 10^−6 mol/l) were “increased” and “inefficacious”, respectively. Moreover, the effective biotin concentration in the data set on HaCaT keratinocytes (stimulation of lipid synthesis, from FIG. 2) is given as 10^−5 mol/l. The “epithelial and histopathological changes in the areas treated” value in the data set with skin of old people (in vivo) is “not possible to show any epithelial and histopathological changes at all”. The “development of wrinkles on the skin of old people” value in the data set with skin of old people (topically applied formulations, biotin content 0.25% and 0.50%) is reported as “visible reduction”. Also, the “penetration of biotin through the horny layer of the human skin” value in data set [3] is given as “does not penetrate or does not penetrate in an efficacious concentration”.
